# Source: patent US9006487B2, “Amine-containing lipids and uses thereof” (Massachusetts Institute of Technology, priority 2005, dated 2015)
# System: cos-7 cells
# Assay: DNA transfection: luciferase expression relative to Lipofectamine 2000
# Format: cell-based
# Details: 300 ng Luciferase DNA per well, luciferase assay after 48 hours
# Outline: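 cos-7 cells were transfected with 300 ng/well luciferase DNA complexed with lipid at ratios from 2.5 to 25 w/w. Bright-Glo luminescence was read after 48 hours and converted to ng luciferase by standard curve. Data are percent of the Lipofectamine 2000 control (2.5 w/w).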
Compound,Luciferase expression as a percentage of that achieved using Lipofectamine 2000 (lipid/DNA 2.5 w/w),Luciferase expression as a percentage of that achieved using Lipofectamine 2000 (lipid/DNA 5 w/w),Luciferase expression as a percentage of that achieved using Lipofectamine 2000 (lipid/DNA 10 w/w),Luciferase expression as a percentage of that achieved using Lipofectamine 2000 (lipid/DNA 15 w/w),Luciferase expression as a percentage of that achieved using Lipofectamine 2000 (lipid/DNA 20 w/w),Luciferase expression as a percentage of that achieved using Lipofectamine 2000 (lipid/DNA 25 w/w)
CCCCCCCCCCCCCOC(=O)CCN(CC)CCCN(CC)CCC(=O)OCCCCCCCCCCCCC [LE64],0.1%,0.1%,0.1%,0.0%,0.1%,0.1%
CCCCCCCCCCCCCCCCCCOC(=O)CCN(CCCO)CCC(=O)OCCCCCCCCCCCCCCCCCC [LH20],0.0%,0.0%,0.0%,0.0%,0.0%,0.0%
CCCCCCCCCCCCCCCCCCOC(=O)CCN(CCC(=O)OCCCCCCCCCCCCCCCCCC)CC1COC(C)(C)O1 (centres unmarked) [LH7],0.0%,0.0%,0.0%,0.0%,0.0%,0.0%
CCCCCCCCCCOC(=O)CCN1CCCN(CCC(=O)OCCCCCCCCCC)CC1 [LB70],0.1%,0.1%,0.1%,0.1%,0.1%,0.1%
CCCCCCCCCCCCCCCCCCOC(=O)CCN(CCOCC)CCC(=O)OCCCCCCCCCCCCCCCCCC [LH11],0.0%,0.0%,0.0%,0.0%,0.0%,0.0%
CCCCCCCCCCOC(=O)CCN(CCC(=O)OCCCCCCCCCC)C(C)CN(C)C (centres unmarked) [LB79],0.1%,0.1%,0.1%,0.1%,0.1%,0.1%
CCCCCCCCCCOC(=O)CCN(C)CCN(C)CCC(=O)OCCCCCCCCCC [LB60],0.4%,0.4%,0.4%,0.4%,0.4%,0.4%
CCCCCCCCCCCCCCCCCCOC(=O)CCN(CCCCO)CCC(=O)OCCCCCCCCCCCCCCCCCC [LH28],,,0.2%,0.2%,,
CCCCCCCCCCCCCCOC(=O)CCN(CCC(=O)OCCCCCCCCCCCCCC)C(C)(CO)CO [LF26],0.1%,0.2%,0.7%,0.1%,0.1%,0.3%
